According to DBAASP:
In brackets after ≈: the same amount, converted by molar mass. Several values for one entry are separate records, joined by “and”; a condition that tells them apart may be missing. Equal values may be shown once. Values belong to the compound of their own block, whether it stands above or below them.

Legend:
Assay in all cases: ≥ marks a high value that may be exact or a test limit, other limits are often not marked, values filed in µg/mL are converted to µM
[1] = tested on: Mannheimia haemolytica 82-25
Escherichia coli TOP 10 = tested on: Escherichia coli TOP 10
[2] = tested on: Escherichia coli CVCC 1515
[3] = tested on: Aeromonas veronii ATCC 35624
[4] = tested on: Staphylococcus aureus ATCC 43300
Aeromonas veronii CL0901 = tested on: Aeromonas veronii CL0901
[5] = tested on: Pseudomonas aeruginosa CICC 21630
[6] = tested on: Aeromonas veronii X-1-06909
[7] = tested on: Escherichia coli CVCC 195
[8] = tested on: Salmonella enterica subsp. enterica serovar Typhimurium ATCC 14028
[9] = tested on: Salmonella enterica subsp. enterica serovar Enteritidis CVCC 3377
[10] = tested on: Escherichia coli CVCC O157
[11] = tested on: Salmonella enterica subsp. enterica serovar Pullorum CVCC 1789
Staphylococcus hyicus = tested on: Staphylococcus hyicus
[12] = tested on: Staphylococcus hyicus NCTC 10350
[13] = tested on: Escherichia coli CVCC 25922
[14] = tested on: Staphylococcus aureus ATCC 25923
[15] = tested on: Salmonella enterica subsp. enterica serovar Pullorum CVCC 1809
[16] = tested on: Candida albicans CMCC 98001
[17] = tested on: Salmonella enterica subsp. enterica serovar Pullorum CVCC 533
[18] = tested on: Staphylococcus aureus ATCC 546
[19] = tested on: Salmonella enterica ATCC 6539
[20] = tested on: Enterococcus faecium ATCC 700221
[21] = tested on: Acinetobacter baumannii ATCC BAA-747
[22] = tested on: Pseudomonas aeruginosa ATCC 27853
[23] = tested on: Escherichia coli ATCC 25922
[24] = tested on: Klebsiella pneumoniae ATCC 700603
[25] = tested on: Staphylococcus epidermidis ATCC 12228
[26] = tested on: Shigella sonnei ATCC 11060
[27] = tested on: Salmonella enterica subsp. enterica serovar Typhimurium ATCC 13311
[28] = tested on: Enterococcus faecalis ATCC 29212
Escherichia coli O157:H7 = tested on: Escherichia coli O157:H7
[29] = tested on: Listeria monocytogenes 10403s
Acinetobacter baumannii = tested on: Acinetobacter baumannii
Vibrio cholerae O1 Inaba = tested on: Vibrio cholerae O1 Inaba
[30] = tested on: Bacillus cereus ATCC 11778
[31] = tested on: Staphylococcus aureus SH1000
[32] = tested on: Staphylococcus aureus 209P
[33] = tested on: Pseudomonas aeruginosa PAO1
Escherichia coli C600 = tested on: Escherichia coli C600
[34] = tested on: Candida parapsilosis CGMCC 2.3989
[35] = tested on: Candida albicans CGMCC 2.2086
Candida albicans = tested on: Candida albicans
[36] = tested on: Candida tropicalis CGMCC 2.1975

Compound: NCCCC[C@H](NC(=O)[C@H](CC(=O)O)NC(=O)[C@H](CC(=O)O)NC(=O)[C@H](CC(=O)O)NC(=O)[C@@H](N)CC(=O)O)C(=O)O [DDDDK]
MIC [1]: ≥ 90 µM

MIC (Escherichia coli TOP 10): 12 µM (≈ 25 µg/mL)
Compound: CC[C@H](C)[C@H](NC(=O)[C@H](C)NC(=O)[C@H](CS)NC(=O)[C@H](CC(C)C)NC(=O)[C@@H](NC(=O)[C@H](C)NC(=O)[C@H](CCCN=C(N)N)NC(=O)[C@@H](NC(=O)[C@@H](NC(=O)[C@H](CCCCN)NC(=O)[C@@H](NC(=O)[C@@H](NC(=O)[C@@H]1CCCN1C(=O)CNC(=O)[C@H](CC(C)C)NC(=O)[C@@H](N)Cc1ccccc1)[C@@H](C)CC)[C@@H](C)CC)[C@@H](C)O)C(C)C)C(C)C)C(=O)N[C@@H](CCCCN)C(=O)N[C@@H](CCCCN)C(=O)N[C@@H](CC(C)C)C(N)=O [FLGPIIKTVRAVLCAIKKL]

MIC [2]: 1.65 µM (≈ 4 µg/mL)
MIC [4]: > 26.5 µM
MIC [5]: 26.5 µM (≈ 63.9 µg/mL)
MIC [7]: 3.31 µM (≈ 7.99 µg/mL)
MIC [8]: 6.62 µM (≈ 16 µg/mL)
MIC [9]: 0.827 µM (≈ 2 µg/mL)
MIC [10]: 3.31 µM (≈ 7.99 µg/mL)
MIC [11]: 6.62 µM (≈ 16 µg/mL)
MIC (Staphylococcus hyicus): 26.5 µM (≈ 63.9 µg/mL)
MIC [12]: ≥ 52.9 µM
MIC [13]: 3.31 µM (≈ 7.99 µg/mL)
MIC [14]: > 26.5 µM
MIC [15]: 3.31 µM (≈ 7.99 µg/mL)
MIC [16]: ≥ 52.9 µM
MIC [17]: 13.2 µM (≈ 32 µg/mL)
MIC [18]: 26.5 µM (≈ 63.9 µg/mL)
Compound: CC(C)[C@@H]1NC(=O)CNC(=O)[C@H](CC(N)=O)NC(=O)[C@H](CCCN=C(N)N)NC(=O)[C@H](Cc2ccc(O)cc2)NC(=O)[C@H](C(C)C)NC(=O)[C@@H](NC(=O)[C@@H](NC(=O)[C@H](CC(N)=O)NC(=O)[C@H](Cc2c[nH]c3ccccc23)NC(=O)[C@H](C)NC(=O)[C@H](Cc2ccccc2)NC(=O)CN)C(C)C)CSSC[C@@H](C(=O)N[C@@H](Cc2cnc[nH]2)C(=O)N[C@@H](CCCN=C(N)N)C(=O)N2CCC[C@H]2C(=O)N[C@@H](C)C(=O)N[C@@H](CC(N)=O)C(N)=O)NC(=O)[C@H](C(C)C)NC(=O)[C@H](CCCN=C(N)N)NC1=O [GFAWNVCVYRNGVRVCHRPAN]
MIC [3]: 26.5 µM (≈ 63.9 µg/mL)
MIC (Aeromonas veronii CL0901): 26.5 µM (≈ 63.9 µg/mL)
MIC [6]: 26.5 µM (≈ 63.9 µg/mL)

MIC [19]: ≥ 476 µM
MIC [4]: > 476 µM
MIC [20]: ≥ 476 µM
MIC [21]: ≥ 476 µM
MIC [22]: > 476 µM
MIC [23]: > 476 µM
MIC [24]: > 476 µM
Compound: NCC(=O)NCC(=O)N[C@@H](Cc1cnc[nH]1)C(=O)O [GGH]

MIC [25]: 1.82 µM (≈ 3.91 µg/mL)
MIC [26]: 1.82 µM (≈ 3.91 µg/mL)
MIC [27]: 0.905 µM (≈ 1.95 µg/mL)
MIC [28]: 7.26 µM (≈ 15.6 µg/mL)
MIC (Escherichia coli O157:H7): 29 µM (≈ 62.5 µg/mL)
MIC [22]: 3.63 µM (≈ 7.81 µg/mL)
MIC [23]: 3.63 µM (≈ 7.81 µg/mL)
MIC [14]: 3.63 µM (≈ 7.81 µg/mL)
MIC [29]: 1.82 µM (≈ 3.91 µg/mL)
MIC (Acinetobacter baumannii): 3.63 µM (≈ 7.81 µg/mL)
MIC [30]: 1.82 µM (≈ 3.91 µg/mL)
Compound: CC[C@H](C)[C@H](NC(=O)[C@H](CCCN=C(N)N)NC(=O)[C@H](CCCCN)NC(=O)[C@H](C)NC(=O)[C@@H](NC(=O)[C@@H](N)CCCCN)[C@@H](C)CC)C(=O)N[C@@H](Cc1c[nH]c2ccccc12)C(=O)N[C@@H](CCCCN)C(=O)N[C@H](C(=O)N[C@@H](CC(C)C)C(=O)N[C@@H](CCCN=C(N)N)C(=O)N[C@@H](CCCN=C(N)N)C(=O)N[C@@H](CCCN=C(N)N)C(=O)N[C@@H](CC(C)C)C(=O)N[C@@H](Cc1ccccc1)C(=O)N[C@@H](CCCN=C(N)N)C(N)=O)[C@@H](C)CC [KIAKRIWKILRRRLFR]
MIC (Vibrio cholerae O1 Inaba): 1.82 µM (≈ 3.91 µg/mL)

MIC [31]: ≥ 100 µM
Compound: CC[C@H](C)[C@H](NC(=O)[C@H](CC(=O)O)NC(=O)[C@H](CC(C)C)NC(=O)[C@H](CC(C)C)NC(=O)[C@@H](N)CCCCN)C(=O)N[C@H](C(=O)N[C@@H](CCCCN)C(=O)N[C@@H](CCCCN)C(=O)N[C@H](C(=O)N[C@H](C(=O)NCC(=O)N[C@@H](C)C(=O)N[C@@H](CC(C)C)C(=O)NCC(N)=O)C(C)C)C(C)C)C(C)C [KLLDIVKKVVGALG]

MIC [32]: 6.25 µM (≈ 14.1 µg/mL)
MIC [33]: 12.5 µM (≈ 28.2 µg/mL)
MIC (Escherichia coli C600): 1.56 µM (≈ 3.51 µg/mL)
Compound: CC[C@H](C)[C@@H]1NC(=O)CNC(=O)[C@H](CCCN=C(N)N)NC(=O)[C@H](Cc2ccc(O)cc2)NC(=O)[C@@H]2CSSC[C@H](NC1=O)C(=O)N[C@@H](Cc1ccc(O)cc1)C(=O)N[C@@H](CCCN=C(N)N)C(=O)N[C@@H](CCCN=C(N)N)C(=O)N[C@H](C(=O)N[C@@H](CCCN=C(N)N)C(=O)O)CSSC[C@H](NC(=O)[C@H](Cc1c[nH]c3ccccc13)NC(=O)[C@@H](N)CCCCN)C(=O)N[C@@H](Cc1ccccc1)C(=O)N[C@@H](CCCN=C(N)N)C(=O)N[C@@H](CO)C(=O)N2 [KWCFRSCYRGICYRRCR]

MIC [34]: 4 µM (≈ 9.45 µg/mL)
MIC [35]: 4 µM (≈ 9.45 µg/mL)
MIC (Candida albicans): 2.83 µM and 4 µM
MIC [36]: 2 µM (≈ 4.73 µg/mL)
Compound: CC[C@H](C)[C@H](NC(=O)CNC(=O)[C@H](CCCN=C(N)N)NC(=O)[C@H](Cc1c[nH]c2ccccc12)NC(=O)[C@H](CC(C)C)NC(=O)[C@H](CC(C)C)NC(=O)[C@H](Cc1c[nH]c2ccccc12)NC(=O)[C@H](CCCN=C(N)N)NC(=O)CNC(=O)[C@@H](NC(=O)[C@@H](N)CCCN=C(N)N)[C@@H](C)CC)C(=O)N[C@@H](CCCN=C(N)N)C(=O)N[C@@H](CCCN=C(N)N)C(=O)N[C@H](C(=O)NCC(=O)N[C@@H](CCCN=C(N)N)C(=O)N[C@@H](Cc1c[nH]c2ccccc12)C(=O)N[C@@H](CC(C)C)C(N)=O)[C@@H](C)CC [RIGRWLLWRGIRRIGRWL]
